# Laboratory results: US20230295200A1 (REGENTS OF THE UNIVERSITY OF MICHIGAN, priority 2022, published 2023)
# Target: T1, STAT5A (Homo sapiens, UniProt P42229)
# T1 sequence (P42229 1-794): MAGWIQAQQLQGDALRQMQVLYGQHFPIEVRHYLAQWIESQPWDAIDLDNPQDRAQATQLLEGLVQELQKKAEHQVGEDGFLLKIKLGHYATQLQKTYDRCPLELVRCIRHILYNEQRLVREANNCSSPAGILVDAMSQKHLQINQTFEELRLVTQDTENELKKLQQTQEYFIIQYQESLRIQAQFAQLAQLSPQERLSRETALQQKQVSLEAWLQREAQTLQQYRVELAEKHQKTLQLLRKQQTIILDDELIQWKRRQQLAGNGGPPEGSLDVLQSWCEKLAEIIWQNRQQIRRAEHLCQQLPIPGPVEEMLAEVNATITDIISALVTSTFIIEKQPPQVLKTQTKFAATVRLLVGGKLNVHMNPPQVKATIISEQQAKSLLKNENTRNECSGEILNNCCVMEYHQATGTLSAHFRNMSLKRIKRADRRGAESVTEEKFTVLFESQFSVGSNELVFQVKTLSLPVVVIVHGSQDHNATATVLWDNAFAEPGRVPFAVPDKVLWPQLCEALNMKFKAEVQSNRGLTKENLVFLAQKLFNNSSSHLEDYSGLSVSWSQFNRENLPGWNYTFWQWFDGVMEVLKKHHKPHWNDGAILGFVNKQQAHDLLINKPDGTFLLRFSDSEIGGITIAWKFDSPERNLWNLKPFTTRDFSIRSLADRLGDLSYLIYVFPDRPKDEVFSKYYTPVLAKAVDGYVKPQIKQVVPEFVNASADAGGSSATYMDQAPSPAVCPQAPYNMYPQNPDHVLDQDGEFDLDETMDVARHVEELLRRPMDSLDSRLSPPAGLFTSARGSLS
# Assay: Fluorescence polarization (FP) binding assay, STAT5A
# Details: FP competition, 5 nM fluorescein-labeled tracer, 200 nM protein, PBS pH7.4
# Description: Evaluation of the activity of the inhibitors may be accomplished by fluorescence polarization (FP) experiments. A representative general protocol is the following:
# Fluorescence polarization (FP) experiments are performed in black round-bottom plates using the CLARIOstar microplate reader. To each well, fluorescein-labeled tracer and STAT5 or STAT6 protein are added in assay buffer. […] The inhibition constants are determined as the concentration of the STAT5 or STAT6 at which 50% of the ligand is bound.
# Fluorescence polarization (FP) experiments were performed in 96-well, black round-bottom plates (Microfluor 2, Fisher Scientific) using the CLARIOstar microplate reader (BMG Labtech). To each well, 5 nM of fluoresceinlabeled tracer and 200 nM of STAT5 and/or STAT6 protein were added to a final volume of 100 μl in the assay buffer (PBS pH7.4+0.01% BGG+0.01% Tween-20, 2 mM DTT). The plate was mixed on a shaker for 15 m and incubated at room temperature for 1 h to reach equilibrium. […] All experimental data were analyzed using Prism 8.0 software (GraphPad Software), and the inhibition constants were determined by nonlinear curve fitting as the concentration of the STAT5 and/or STAT6 at which 50% of the ligand is bound.
row,Structure (SMILES),Ki [µM]
1,"CC(C)(C)[C@H](NC(=O)c1cc2cc(C(F)(F)P(=O)(O)O)ccc2s1)C(=O)N1CCC[C@H]1C(=O)Nc1ncc(-c2cc3ccccc3[nH]2)s1 [Compound 250, ((2-(((S)-1-((S)-2-((5-(1H-indol-2-yl)thiazol-2-yl)carbamoyl)pyrrolidin-1-yl)-3,3-dimethyl-1-oxobutan-2-yl)carbamoyl)benzo[b]thiophen-5-yl)difluoromethyl)phosphonic acid]",> 10
2,"CC(C)c1cnc(NC(=O)[C@@H]2CCCN2C(=O)[C@@H](NC(=O)c2cc3cc(C(F)(F)P(=O)(O)O)ccc3s2)C(C)(C)C)s1 [Compound 251, (difluoro(2-(((S)-1-((S)-2-((5-isopropylthiazol-2-yl)carbamoyl)pyrrolidin-1-yl)-3,3-dimethyl-1-oxobutan-2-yl)carbamoyl)benzo[b]thiophen-5-yl)methyl)phosphonic acid]",> 10
3,"CC(C)(C)c1cnc(NC(=O)[C@@H]2CCCN2C(=O)[C@@H](NC(=O)c2cc3cc(C(F)(F)P(=O)(O)O)ccc3s2)C(C)(C)C)s1 [Compound 252, ((2-(((S)-1-((S)-2-((5-(tert-butyl)thiazol-2-yl)carbamoyl)pyrrolidin-1-yl)-3,3-dimethyl-1-oxobutan-2-yl)carbamoyl)benzo[b]thiophen-5-yl)difluoromethyl)phosphonic acid]",> 10
4,"CCCc1cnc(NC(=O)[C@@H]2CCCN2C(=O)[C@@H](NC(=O)c2cc3cc(C(F)(F)P(=O)(O)O)ccc3s2)C(C)(C)C)s1 [Compound 253, ((2-(((S)-3,3-dimethyl-1-oxo-1-((S)-2-((5-propylthiazol-2-yl)carbamoyl)pyrrolidin-1-yl)butan-2-yl)carbamoyl)benzo[b]thiophen-5-yl)difluoromethyl)phosphonic acid]",> 10
5,"CC(C)(C)[C@H](NC(=O)c1cc2cc(C(F)(F)P(=O)(O)O)ccc2s1)C(=O)N1CCC[C@H]1C(=O)Nc1ncc(C2CCCCC2)s1 [Compound 254, ((2-(((S)-1-((S)-2-((5-cyclohexylthiazol-2-yl)carbamoyl)pyrrolidin-1-yl)-3,3-dimethyl-1-oxobutan-2-yl)carbamoyl)benzo[b]thiophen-5-yl)difluoromethyl)phosphonic acid]",1 to 10
6,"CC(C)(C)[C@H](NC(=O)c1cc2cc(C(F)(F)P(=O)(O)O)ccc2s1)C(=O)N1CCC[C@H]1C(=O)Nc1ncc(-c2ccccc2)s1 [Compound 255, ((2-(((S)-3,3-dimethyl-1-oxo-1-((S)-2-((5-phenylthiazol-2-yl)carbamoyl)pyrrolidin-1-yl)butan-2-yl)carbamoyl)benzo[b]thiophen-5-yl)difluoromethyl)phosphonic acid]",0.1 to 1
7,"Cc1ccccc1-c1cnc(NC(=O)[C@@H]2CCCN2C(=O)[C@@H](NC(=O)c2cc3cc(C(F)(F)P(=O)(O)O)ccc3s2)C(C)(C)C)s1 [Compound 256, ((2-(((S)-3,3-dimethyl-1-oxo-1-((S)-2-((5-(o-tolyl)thiazol-2-yl)carbamoyl)pyrrolidin-1-yl)butan-2-yl)carbamoyl)benzo[b]thiophen-5-yl)difluoromethyl)phosphonic acid]",1 to 10
8,"Cc1cccc(-c2cnc(NC(=O)[C@@H]3CCCN3C(=O)[C@@H](NC(=O)c3cc4cc(C(F)(F)P(=O)(O)O)ccc4s3)C(C)(C)C)s2)c1 [Compound 257, ((2-(((S)-3,3-dimethyl-1-oxo-1-((S)-2-((5-(m-tolyl)thiazol-2-yl)carbamoyl)pyrrolidin-1-yl)butan-2-yl)carbamoyl)benzo[b]thiophen-5-yl)difluoromethyl)phosphonic acid]",1 to 10
9,"Cc1ccc(-c2cnc(NC(=O)[C@@H]3CCCN3C(=O)[C@@H](NC(=O)c3cc4cc(C(F)(F)P(=O)(O)O)ccc4s3)C(C)(C)C)s2)cc1 [Compound 258, ((2-(((S)-3,3-dimethyl-1-oxo-1-((S)-2-((5-(p-tolyl)thiazol-2-yl)carbamoyl)pyrrolidin-1-yl)butan-2-yl)carbamoyl)benzo[b]thiophen-5-yl)difluoromethyl)phosphonic acid]",> 10
10,"CC(C)(C)[C@H](NC(=O)c1cc2cc(C(F)(F)P(=O)(O)O)ccc2s1)C(=O)N1CCC[C@H]1C(=O)Nc1ncc(-c2ccccc2F)s1 [Compound 259, (difluoro(2-(((S)-1-((S)-2-((5-(2-fluorophenyl)thiazol-2-yl)carbamoyl)pyrrolidin-1-yl)-3,3-dimethyl-1-oxobutan-2-yl)carbamoyl)benzo[b]thiophen-5-yl)methyl)phosphonic acid]",1 to 10
11,"CC(C)(C)[C@H](NC(=O)c1cc2cc(C(F)(F)P(=O)(O)O)ccc2s1)C(=O)N1CCC[C@H]1C(=O)Nc1ncc(-c2cccc(F)c2)s1 [Compound 260, (difluoro(2-(((S)-1-((S)-2-((5-(3-fluorophenyl)thiazol-2-yl)carbamoyl)pyrrolidin-1-yl)-3,3-dimethyl-1-oxobutan-2-yl)carbamoyl)benzo[b]thiophen-5-yl)methyl)phosphonic acid]",0.1 to 1
12,"CC(C)(C)[C@H](NC(=O)c1cc2cc(C(F)(F)P(=O)(O)O)ccc2s1)C(=O)N1CCC[C@H]1C(=O)Nc1ncc(-c2ccc(F)cc2)s1 [Compound 261, (difluoro(2-(((S)-1-((S)-2-((5-(4-fluorophenyl)thiazol-2-yl)carbamoyl)pyrrolidin-1-yl)-3,3-dimethyl-1-oxobutan-2-yl)carbamoyl)benzo[b]thiophen-5-yl)methyl)phosphonic acid]",1 to 10
13,"CC(C)(C)[C@H](NC(=O)c1cc2cc(C(F)(F)P(=O)(O)O)ccc2s1)C(=O)N1CCC[C@H]1C(=O)Nc1ncc(-c2cccc(Cl)c2)s1 [Compound 262, ((2-(((S)-1-((S)-2-((5-(3-chlorophenyl)thiazol-2-yl)carbamoyl)pyrrolidin-1-yl)-3,3-dimethyl-1-oxobutan-2-yl)carbamoyl)benzo[b]thiophen-5-yl)difluoromethyl)phosphonic acid]",1 to 10
14,"CC(C)(C)[C@H](NC(=O)c1cc2cc(C(F)(F)P(=O)(O)O)ccc2s1)C(=O)N1CCC[C@H]1C(=O)Nc1ncc(-c2ccc(Cl)cc2)s1 [Compound 263, ((2-(((S)-1-((S)-2-((5-(4-chlorophenyl)thiazol-2-yl)carbamoyl)pyrrolidin-1-yl)-3,3-dimethyl-1-oxobutan-2-yl)carbamoyl)benzo[b]thiophen-5-yl)difluoromethyl)phosphonic acid]",> 10
15,"CC(C)(C)[C@H](NC(=O)c1cc2cc(C(F)(F)P(=O)(O)O)ccc2s1)C(=O)N1CCC[C@H]1C(=O)Nc1ncc(-c2ccc(Br)cc2)s1 [Compound 264, ((2-(((S)-1-((S)-2-((5-(4-bromophenyl)thiazol-2-yl)carbamoyl)pyrrolidin-1-yl)-3,3-dimethyl-1-oxobutan-2-yl)carbamoyl)benzo[b]thiophen-5-yl)difluoromethyl)phosphonic acid]",1 to 10
16,"CN(C(=O)[C@@H]1CCCCCN1C(=O)[C@@H](NC(=O)c1cc2cc(C(F)(F)P(=O)(O)O)ccc2s1)C(C)(C)C)c1ncc(-c2ccccc2)s1 [Compound 303, ((2-(((S)-3,3-dimethyl-1-((S)-2-(methyl(5-phenylthiazol-2-yl)carbamoyl)azepan-1-yl)-1-oxobutan-2-yl)carbamoyl)benzo[b]thiophen-5-yl)difluoromethyl)phosphonic acid]",1 to 10
17,"CCN(C(=O)[C@@H]1CCCCCN1C(=O)[C@@H](NC(=O)c1cc2cc(C(F)(F)P(=O)(O)O)ccc2s1)C(C)(C)C)c1ncc(-c2ccccc2)s1 [Compound 304, ((2-(((S)-1-((S)-2-(ethyl(5-phenylthiazol-2-yl)carbamoyl)azepan-1-yl)-3,3-dimethyl-1-oxobutan-2-yl)carbamoyl)benzo[b]thiophen-5-yl)difluoromethyl)phosphonic acid]",1 to 10
18,"CN(C)C(=O)CCN(C(=O)[C@@H]1CCCN1C(=O)[C@@H](NC(=O)c1cc2cc(C(F)(F)P(=O)(O)O)ccc2s1)C1CC1)c1ccc(-c2nccs2)cc1 [Compound 321, ((2-(((S)-1-cyclopropyl-2-((S)-2-((3-(dimethylamino)-3-oxopropyl)(4-(thiazol-2-yl)phenyl)carbamoyl)pyrrolidin-1-yl)-2-oxoethyl)carbamoyl)benzo[b]thiophen-5-yl)difluoromethyl)phosphonic acid]",1 to 10
